The results in this text go back to PMC9189904, “Functional Properties of Two Distinct PTH1R Mutants Associated With Either Skeletal Defects or Pseudohypoparathyroidism” (JBMR Plus, 2022).

Common to all, as to format: cell-based
For assay [1], the target named is T1, PTH1R‐WT (Homo sapiens, UniProt Q03431).
T1 construct: expressed in transfected cells; plasmid TG-906 made by VectorBuilder
T1 sequence (Q03431 27-593 E90Y/S91D/E92V/E93P/K95Y/E96A): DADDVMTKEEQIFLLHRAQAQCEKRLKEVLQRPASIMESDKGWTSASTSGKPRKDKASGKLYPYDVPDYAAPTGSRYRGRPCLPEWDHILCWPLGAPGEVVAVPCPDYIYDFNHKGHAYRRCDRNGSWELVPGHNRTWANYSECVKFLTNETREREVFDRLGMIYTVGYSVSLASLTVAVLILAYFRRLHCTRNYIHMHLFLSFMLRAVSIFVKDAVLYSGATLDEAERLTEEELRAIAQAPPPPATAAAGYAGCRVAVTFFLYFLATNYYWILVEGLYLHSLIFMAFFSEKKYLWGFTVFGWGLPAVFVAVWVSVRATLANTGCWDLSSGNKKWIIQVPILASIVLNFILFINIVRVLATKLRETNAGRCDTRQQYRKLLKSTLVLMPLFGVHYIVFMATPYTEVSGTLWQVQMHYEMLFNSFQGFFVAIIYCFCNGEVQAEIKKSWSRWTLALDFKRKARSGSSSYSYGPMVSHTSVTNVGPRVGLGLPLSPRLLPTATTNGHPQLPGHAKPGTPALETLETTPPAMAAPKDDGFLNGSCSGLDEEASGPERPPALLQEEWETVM
In words: Fluorescence microscopy of PTH(1-34)TMR-PTH1R complexes in GS-22a cells, ImageJ analysis. The conditions noted are these: ligand 30nM, 30 min 4°C then 30 min room temperature, means of six cells, representative experiment. The method, then:
(§1) PTH analog binding to WT and mutant PTH1Rs was assessed by fluorescence microscopy in transiently transfected GS‐22A cells as described.^( [30], [31] ^) Briefly, the cells were transfected in six‐well plates, reseeded at 24 hours onto coverslips in six‐well plates, and at 48 hours posttransfection processed for analysis. The plates were placed on ice and the cells on coverslips were rinsed with cold HB. Then 1.0 mL of HB was then added to each well, followed by Alexafluor‐488‐labeled mouse monoclonal anti‐HA immunoglobulin G (IgG) antibody (BioLegend; Cat. No. 901509) at a concentration of 1 μg/mL, and the plate was incubated at 4°C for 1 hour. […] The plate was then shifted to room temperature and incubations continued for 30 minutes. The mixtures were then removed, the cells were rinsed twice with HB, fixed for 5 minutes in 3.7% paraformaldehyde buffer (Boston BioProducts, Inc., Ashland, MA, USA; Cat. No. BM‐158), rinsed with HB, then mounted on a glass microscope slide in Vectashield media containing 4′,6‐diamidino‐2‐phenylindole (DAPI) (Vector Laboratories, Burlingame, CA, USA; Cat. No. H1500) and imaged at magnification ×400 using a Nikon Eclipse fluorescence microscope equipped with a CCD camera configured with SPOT imaging software (Nikon, Tokyo, Japan). Regions of interest were digitally expanded 5× or 7× in PowerPoint software (Microsoft Corp., Redmond, WA, USA).
(§2) Fluorescent microscopy images were analyzed using ImageJ software, ver. […] The freehand tool was used to define the area analyzed for each cell, and the Measure>Analyze Particle tool was used to obtain the number of particles, the total area and the mean grayscale (intensity) of each particle for each cell. For each cell, the number of particles was divided by the total area to obtain the Particles/Total Area.

Assay [2] addresses T2, PTH1R‐V204E (Homo sapiens, UniProt Q03431, V204E).
T2 construct: expressed in transfected cells; plasmid TG-928 made by VectorBuilder
T2 sequence (Q03431 27-593 E90Y/S91D/E92V/E93P/K95Y/E96A/V204E): T1 sequence (Q03431 27-593 E90Y/S91D/E92V/E93P/K95Y/E96A) with V178E
The assay is described as above. The conditions noted are these: ligand 30nM, means of six cells, representative experiment. The method, then: as §1, §2

The target in assay [3] is T3, PTH1R‐R186H (Homo sapiens, UniProt Q03431, R186H).
T3 construct: expressed in transfected cells; plasmid TG-907 made by VectorBuilder
T3 sequence (Q03431 27-593 E90Y/S91D/E92V/E93P/K95Y/E96A/R186H): T1 sequence (Q03431 27-593 E90Y/S91D/E92V/E93P/K95Y/E96A) with R160H
The assay is described as above. As to conditions: ligand 30nM, means of six cells, representative experiment. The method, then: as §1, §2

The target in assay [4] is T1, PTH1R‐WT. Kind of assay: β-arrestin2-YFP recruitment by fluorescence microscopy in GBR-24 cells, ImageJ analysis. As to conditions: ligand 30nM. The procedure: (§3) Recruitment of β‐arrestin was assessed in GBR‐24 cells (HEK293/GloSensor (GS‐22A)‐derived cells stably expressing β‐arrestin2^YFP)^( [30] ^) that were transiently transfected to express PTH1R‐WT or a mutant derivative.
as §2

The target in assay [5] is T4, PTH1R‐P132L (Homo sapiens, UniProt Q03431, P132L).
T4 construct: expressed in transfected cells; plasmid TG-395 in pCDNA1
T4 sequence (Q03431 27-593 E90Y/S91D/E92V/E93P/K95Y/E96A/P132L): T1 sequence (Q03431 27-593 E90Y/S91D/E92V/E93P/K95Y/E96A) with P106L
Described as above. The conditions noted are these: ligand 30nM. The procedure: as §3, §2

Assay [6] deals with T2, PTH1R‐V204E. Described as above. As to conditions: ligand 30nM. The procedure:
as §3, §2

Assay [7] has as its target T3, PTH1R‐R186H. Described as above. The conditions noted are these: ligand 30nM. The method, then:
as §3, §2

Setting [8] is: GBR-24 cells, 30 min, a representative cell.
Setting [9] is: GBR24 cells, means of six cells.

Changes are numbered by the printed parent chain.

In the case of “tetramethylrhodamine (TMR)‐^ n L ^8,21‐rat‐PTH(1‐34) [PTH(1‐34)^TMR]”, the “Particles /Total Area” value is 1011 ± 57 in assay [1], 826 ± 78 in assay [2] and 1162 ± 95 in assay [3]. Further, the “Particles/Total Area (βArrestinYFP-ligand complexes)” value was 704 ± 22 in assay [4] (GBR24 cells, 30 min room temperature, means of six cells, representative experiment); 223 ± 66 in assay [5] (setting [9]); 496 ± 44 in assay [6] (setting [9]); 603 ± 81 in assay [7] (setting [9]). Besides, the “Pearson correlation coefficient (R), colocalization of ligand with β-arrestin2YFP” value is 0.97 in assay [4] (setting [8]), 0.69 in assay [6] (setting [8]) and 0.86 in assay [7] (setting [8]). Also, the “ligand binding and β-arrestin2YFP recruitment (microscopy signal)” value in assay [5] (GBR-24 cells, 30 min (Fig. 4A)) is recorded as “Only faint signal”.
